According to the supplement of paper PMC10307832:

How the values were obtained:
Test in all cases: relative viability (nuclei count vs DMSO), 5 days (fraction); higher = more cells survive
[1] = test system: HCC-15
Procedure, shortened: (§1)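 Relative viability divides the nuclei count in treated wells by that in vehicle wells. Lung cancer cell lines were seeded in 1536-well plates, dosed by pin tool the next day, and fixed and stained after 5 days in one step with final 0.05% Triton X-100, 1% formaldehyde and 1 ug/ml Hoechst. Dosing was a single drug or a fixed anchor-drug dose plus five library-drug doses (not always all listed) in √10 steps, and values are medians of duplicate plates imaged at 4×.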

[2] = test system: NCI-H2126
Procedure, shortened: as §1

[3] = test system: SW 1573
Procedure, shortened: as §1

[4] = test system: PC-14
Procedure, shortened: as §1

[5] = test system: UMC-11
Procedure, shortened: as §1

[6] = test system: NCI-H358
Procedure, shortened: as §1

[7] = test system: ABC-1
Procedure, shortened: as §1

[8] = test system: NCI-H650
Procedure, shortened: as §1

[9] = test system: NCI-H838
Procedure, shortened: as §1

[10] = test system: LU99A
Procedure, shortened: as §1

[11] = test system: NCI-H1651
Procedure, shortened: as §1

[12] = test system: NCI-H2347
Procedure, shortened: as §1

[13] = test system: NCI-H1915
Procedure, shortened: as §1

[14] = test system: NCI-H2085
Procedure, shortened: as §1

[15] = test system: HARA
Procedure, shortened: as §1

[16] = test system: HCC-78
Procedure, shortened: as §1

[17] = test system: NCI-H1993
Procedure, shortened: as §1

[18] = test system: LC-2-ad
Procedure, shortened: as §1

[19] = test system: NCI-H460
Procedure, shortened: as §1

[20] = test system: COR-L23
Procedure, shortened: as §1

[21] = test system: NCI-H2342
Procedure, shortened: as §1

[22] = test system: NCI-H522
Procedure, shortened: as §1

[23] = test system: NCI-H2009
Procedure, shortened: as §1

[24] = test system: EPLC-272H
Procedure, shortened: as §1

`COc1cc(N2CCC(C(N)=O)CC2)ccc1Nc1nc(N)c(Cl)c(Nc2ccccc2S(=O)(=O)C(C)C)n1` [HG-5-88-01] + N=C(N)NC(=N)NCCc1ccccc1 [Phenformin] (partner 250 µM) gave a relative viability ([1]; first compound 0.04 µM) of 0.528, a relative viability ([1]; first compound 0.1265 µM) of 0.488 and a relative viability ([1]; first compound 0.4 µM) of 0.4. It also gave a relative viability ([1]; first compound 1.265 µM) of 0.461, a relative viability ([1]; first compound 4 µM) of 0.231 and a relative viability ([2]; first compound 0.04 µM) of 0.552. It also gave a relative viability ([2]; first compound 0.1265 µM) of 0.58, a relative viability ([2]; first compound 0.4 µM) of 0.525 and a relative viability ([2]; first compound 1.265 µM) of 0.461. For the same compound, the relative viability ([2]; first compound 4 µM) was 0.384, the relative viability ([3]; first compound 0.04 µM) was 0.335 and the relative viability ([3]; first compound 0.1265 µM) was 0.368. The relative viability ([3]; first compound 0.4 µM) was 0.324, the relative viability ([3]; first compound 1.265 µM) was 0.229 and the relative viability ([3]; first compound 4 µM) was 0.344. The relative viability ([4]; first compound 0.04 µM) was 0.65, the relative viability ([4]; first compound 0.1265 µM) was 0.522 and the relative viability ([4]; first compound 0.4 µM) was 0.484. The relative viability ([4]; first compound 1.265 µM) was 0.212, the relative viability ([4]; first compound 4 µM) was 0.103 and the relative viability ([5]; first compound 0.04 µM) was 0.336. For the same compound, the relative viability ([5]; first compound 0.1265 µM) was 0.419, the relative viability ([5]; first compound 1.265 µM) was 0.359 and the relative viability ([5]; first compound 4 µM) was 0.263. The relative viability ([6]; first compound 0.04 µM) was 0.268, the relative viability ([6]; first compound 0.1265 µM) was 0.246 and the relative viability ([6]; first compound 0.4 µM) was 0.216. The relative viability ([6]; first compound 1.265 µM) was 0.129, the relative viability ([6]; first compound 4 µM) was 0.139 and the relative viability ([7]; first compound 0.04 µM) was 0.272. The relative viability ([7]; first compound 0.1265 µM) was 0.233, the relative viability ([7]; first compound 0.4 µM) was 0.2 and the relative viability ([7]; first compound 1.265 µM) was 0.207. The relative viability ([7]; first compound 4 µM) was 0.24, the relative viability ([8]; first compound 0.04 µM) was 0.429 and the relative viability ([8]; first compound 0.1265 µM) was 0.492. The relative viability ([8]; first compound 0.4 µM) was 0.417, the relative viability ([8]; first compound 1.265 µM) was 0.424 and the relative viability ([8]; first compound 4 µM) was 0.335. For the same compound, the relative viability ([9]; first compound 0.04 µM) was 0.505, the relative viability ([9]; first compound 0.1265 µM) was 0.558 and the relative viability ([9]; first compound 0.4 µM) was 0.411. It also gave a relative viability ([9]; first compound 1.265 µM) of 0.368, a relative viability ([9]; first compound 4 µM) of 0.313 and a relative viability ([10]; first compound 0.04 µM) of 0.801. It also gave a relative viability ([10]; first compound 0.1265 µM) of 0.78, a relative viability ([10]; first compound 0.4 µM) of 0.823 and a relative viability ([10]; first compound 1.265 µM) of 0.921. It also gave a relative viability ([10]; first compound 4 µM) of 0.593, a relative viability ([11]; first compound 0.04 µM) of 0.358 and a relative viability ([11]; first compound 0.1265 µM) of 0.341. It also gave a relative viability ([11]; first compound 0.4 µM) of 0.367, a relative viability ([11]; first compound 1.265 µM) of 0.348 and a relative viability ([11]; first compound 4 µM) of 0.346. For the same compound, the relative viability ([12]; first compound 0.04 µM) was 0.295, the relative viability ([12]; first compound 0.1265 µM) was 0.626 and the relative viability ([12]; first compound 0.4 µM) was 0.448. The relative viability ([12]; first compound 1.265 µM) was 0.41, the relative viability ([12]; first compound 4 µM) was 0.487 and the relative viability ([13]; first compound 0.04 µM) was 0.38. The relative viability ([13]; first compound 0.1265 µM) was 0.354, the relative viability ([13]; first compound 0.4 µM) was 0.381 and the relative viability ([13]; first compound 1.265 µM) was 0.416. It also gave a relative viability ([13]; first compound 4 µM) of 0.328, a relative viability ([14]; first compound 0.04 µM) of 0.656 and a relative viability ([14]; first compound 0.1265 µM) of 0.799. It also gave a relative viability ([14]; first compound 0.4 µM) of 0.685, a relative viability ([14]; first compound 1.265 µM) of 0.622 and a relative viability ([14]; first compound 4 µM) of 0.395. For the same compound, the relative viability ([15]; first compound 0.04 µM) was 0.439, the relative viability ([15]; first compound 0.1265 µM) was 0.513 and the relative viability ([15]; first compound 0.4 µM) was 0.48. The relative viability ([15]; first compound 1.265 µM) was 0.432, the relative viability ([15]; first compound 4 µM) was 0.324 and the relative viability ([16]; first compound 0.04 µM) was 0.602. The relative viability ([16]; first compound 0.1265 µM) was 0.584, the relative viability ([16]; first compound 0.4 µM) was 0.447 and the relative viability ([16]; first compound 1.265 µM) was 0.306. It also gave a relative viability ([16]; first compound 4 µM) of 0.324, a relative viability ([17]; first compound 0.04 µM) of 0.501 and a relative viability ([17]; first compound 0.1265 µM) of 0.471. The relative viability ([17]; first compound 0.4 µM) was 0.438, the relative viability ([17]; first compound 1.265 µM) was 0.558 and the relative viability ([17]; first compound 4 µM) was 0.527. The relative viability ([18]; first compound 0.04 µM) was 0.717, the relative viability ([18]; first compound 0.1265 µM) was 0.69 and the relative viability ([18]; first compound 0.4 µM) was 0.598. It also gave a relative viability ([18]; first compound 1.265 µM) of 0.472, a relative viability ([18]; first compound 4 µM) of 0.415 and a relative viability ([19]; first compound 0.04 µM) of 0.497. For the same compound, the relative viability ([19]; first compound 0.1265 µM) was 0.491, the relative viability ([19]; first compound 0.4 µM) was 0.587 and the relative viability ([19]; first compound 1.265 µM) was 0.51. It also gave a relative viability ([19]; first compound 4 µM) of 0.214, a relative viability ([20]; first compound 0.04 µM) of 0.458 and a relative viability ([20]; first compound 0.1265 µM) of 0.407. The relative viability ([20]; first compound 0.4 µM) was 0.406, the relative viability ([20]; first compound 1.265 µM) was 0.377 and the relative viability ([20]; first compound 4 µM) was 0.39. The relative viability ([21]; first compound 0.04 µM) was 0.464, the relative viability ([21]; first compound 0.1265 µM) was 0.538 and the relative viability ([21]; first compound 0.4 µM) was 0.614. The relative viability ([21]; first compound 1.265 µM) was 0.506, the relative viability ([21]; first compound 4 µM) was 0.6 and the relative viability ([22]; first compound 0.04 µM) was 0.711. It also gave a relative viability ([22]; first compound 0.1265 µM) of 0.657, a relative viability ([22]; first compound 0.4 µM) of 0.697 and a relative viability ([22]; first compound 1.265 µM) of 0.558. The relative viability ([22]; first compound 4 µM) was 0.502, the relative viability ([23]; first compound 0.04 µM) was 0.475 and the relative viability ([23]; first compound 0.1265 µM) was 0.527. It also gave a relative viability ([23]; first compound 0.4 µM) of 0.534, a relative viability ([23]; first compound 1.265 µM) of 0.484 and a relative viability ([23]; first compound 4 µM) of 0.366. For the same compound, the relative viability ([24]; first compound 0.04 µM) was 0.352, the relative viability ([24]; first compound 0.1265 µM) was 0.34 and the relative viability ([24]; first compound 0.4 µM) was 0.274. For the same compound, the relative viability ([24]; first compound 1.265 µM) was 0.253 and the relative viability ([24]; first compound 4 µM) was 0.0477.
